The results in this text go back to ChEMBL document CHEMBL1129160, “Non thiazolidinedione antihyperglycaemic agents. 2: -Carbon substituted -phenylpropanoic acids1” (Bioorg Med Chem Lett, 1996).

A word on the Ki: it is a dissociation constant, usually derived from enzyme kinetics or from competition with a known ligand.

The first experiment deals with T1, Peroxisome proliferator-activated receptor gamma (Homo sapiens, UniProt P37231).
T1 sequence (P37231 whole entry): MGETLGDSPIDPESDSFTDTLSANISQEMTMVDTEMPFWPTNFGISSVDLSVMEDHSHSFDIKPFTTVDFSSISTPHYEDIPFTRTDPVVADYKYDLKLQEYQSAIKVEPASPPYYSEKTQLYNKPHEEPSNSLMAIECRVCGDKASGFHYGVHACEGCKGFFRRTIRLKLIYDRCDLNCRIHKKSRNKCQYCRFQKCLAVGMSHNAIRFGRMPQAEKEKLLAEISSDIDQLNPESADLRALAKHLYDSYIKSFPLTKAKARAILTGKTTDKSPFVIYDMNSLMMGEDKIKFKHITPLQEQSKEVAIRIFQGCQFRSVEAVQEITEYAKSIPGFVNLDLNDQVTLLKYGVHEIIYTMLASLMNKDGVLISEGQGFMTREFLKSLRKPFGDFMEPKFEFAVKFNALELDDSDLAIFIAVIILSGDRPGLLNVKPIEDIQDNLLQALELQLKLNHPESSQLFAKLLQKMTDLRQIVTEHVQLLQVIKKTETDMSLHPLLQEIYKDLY
Nature of the experiment: Inhibition of [125I]SB 236636 binding to human PPAR gamma receptor.
For the molecule `CC(Cc1ccc(OCCN(C)c2nc3ccccc3o2)cc1)C(=O)O` (centres undefined), the Ki is 1.5 µM.

The test system of another experiment is Mus musculus. Nature of the experiment: In vivo anti-hyperglycaemic activity in mice. It is filed as functional.
Consider `CN(CCOc1ccc(CC(C/C=C/c2ccccc2)C(=O)O)cc1)c1nc2ccccc2o1` (centres undefined), for which the ED25 stood at 30 µM/kg.
Consider `CN(CCOc1ccc(CC(CCCCCc2ccccc2)C(=O)O)cc1)c1nc2ccccc2o1` (centres undefined), for which the ED25 was 3 µM/kg.
The same measure, in the same setting: the figure for `CN(CCOc1ccc(CC(C(=O)O)c2ccccc2)cc1)c1nc2ccccc2o1` (centres undefined) is 30 µM/kg; for `CCC(Cc1ccc(OCCN(C)c2nc3ccccc3o2)cc1)C(=O)O` (centres undefined) it is 30 µM/kg; for `CC(Cc1ccc(OCCN(C)c2nc3ccccc3o2)cc1)C(=O)O` (centres undefined) it is 1000 µM/kg.
Regarding `CN(CCOc1ccc(CC(CCCc2ccccc2)C(=O)O)cc1)c1nc2ccccc2o1` (centres undefined), the ED25 came to 3 µM/kg.
Still for that read-out and setting: to `CN(CCOc1ccc(CC(C#N)C(=O)O)cc1)c1nc2ccccc2o1` (centres undefined) belongs 10 µM/kg.
Same read-out and setting: to `CCOC(Cc1ccc(OCCN(C)c2nc3ccccc3o2)cc1)C(=O)O` (centres undefined) belongs 0.1 µM/kg.
Same read-out and setting: to `CCOC(=O)C(Cc1ccc(OCCN(C)c2nc3ccccc3o2)cc1)C(=O)c1ccccc1` (centres undefined) belongs above 1000 µM/kg; to `C=CCC(Cc1ccc(OCCN(C)c2nc3ccccc3o2)cc1)C(=O)O` (centres undefined), 30 µM/kg; to `CC(C)CCC(Cc1ccc(OCCN(C)c2nc3ccccc3o2)cc1)C(=O)O` (centres undefined), 100 µM/kg.
The molecule `CCCCCCC(Cc1ccc(OCCN(C)c2nc3ccccc3o2)cc1)C(=O)O` (centres undefined) showed an ED25 of 10 µM/kg.
Still for that read-out and setting: the figure for `COC(=O)C(Cc1ccc(OCCN(C)c2nc3ccccc3o2)cc1)C(=O)OC` is 10 µM/kg.
Same read-out and setting: to `COC(=O)C(CCc1ccccc1)Cc1ccc(OCCN(C)c2nc3ccccc3o2)cc1` (centres undefined) belongs 100 µM/kg; to `CCCC(Cc1ccc(OCCN(C)c2nc3ccccc3o2)cc1)C(=O)O` (centres undefined), 10 µM/kg; to `COCC(Cc1ccc(OCCN(C)c2nc3ccccc3o2)cc1)C(=O)O` (centres undefined), 30 µM/kg.
On the same count and under the same terms, the figure for `CN(CCOc1ccc(CC(CCCCc2ccccc2)C(=O)O)cc1)c1nc2ccccc2o1` (centres undefined) is 100 µM/kg; for `CN(CCOc1ccc(CC(CCOc2ccccc2)C(=O)O)cc1)c1nc2ccccc2o1` (centres undefined) it is 30 µM/kg.
The molecule `COC(=O)C(Cc1ccc(OCCN(C)c2nc3ccccc3o2)cc1)C(C)=O` (centres undefined) registered an ED25 of 300 µM/kg.
Turning to `COC(=O)C(Cc1ccccc1)Cc1ccc(OCCN(C)c2nc3ccccc3o2)cc1` (centres undefined), the ED25 was found to be 300 µM/kg.
Still for that read-out and setting: to `CN(CCOc1ccc(CC2SC(=O)NC2=O)cc1)c1nc2ccccc2o1` (centres undefined) [BRL-48482] belongs 3 µM/kg; to `Cc1c(C)c2c(c(C)c1O)CCC(C)(COc1ccc(CC3SC(=O)NC3=O)cc1)O2` (centres undefined) [TROGLITAZONE], 400 µM/kg.

For another experiment, the target named is T1, Peroxisome proliferator-activated receptor gamma.
`CN(CCOc1ccc(CC(CCCc2ccccc2)C(=O)O)cc1)c1nc2ccccc2o1` (centres undefined): affinity was put at a Ki of 0.03 µM.
